Experimental findings from patent US9796733B2, “Imidazo-pyrazine derivatives useful as soluble guanylate cyclase activators” (Merck Sharp & Dohme Corp., priority 2014, dated 2017) are described below.

For test [1], the system named is Spontaneously hypertensive rats (SHR). The experiment in a line: Acute efficacy in spontaneously hypertensive rats (SHR): telemetry blood pressure lowering after a single oral dose. It is filed as in vivo, rat. A digest of the protocol:
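Male SHR carrying aortic telemetry implants (14-day recovery) received a single oral gavage of compound or vehicle (10% transcutol/20% Cremophor/70% water). Conscious blood pressure was sampled 30 s every 10 min and averaged hourly; change was taken against the prior-day vehicle baseline, reported as maximum peak SBP decrease at a given PO dose (mpk).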

Another test concerns the target T1, sGC α1/β1 heterodimer (Homo sapiens, UniProt Q02108+Q02153).
T1 construct: expressed in transfected cells; host or cells: CHO-K1 (clone #7, CHO-K1/sGC)
T1 sequence (Q02108 1-690): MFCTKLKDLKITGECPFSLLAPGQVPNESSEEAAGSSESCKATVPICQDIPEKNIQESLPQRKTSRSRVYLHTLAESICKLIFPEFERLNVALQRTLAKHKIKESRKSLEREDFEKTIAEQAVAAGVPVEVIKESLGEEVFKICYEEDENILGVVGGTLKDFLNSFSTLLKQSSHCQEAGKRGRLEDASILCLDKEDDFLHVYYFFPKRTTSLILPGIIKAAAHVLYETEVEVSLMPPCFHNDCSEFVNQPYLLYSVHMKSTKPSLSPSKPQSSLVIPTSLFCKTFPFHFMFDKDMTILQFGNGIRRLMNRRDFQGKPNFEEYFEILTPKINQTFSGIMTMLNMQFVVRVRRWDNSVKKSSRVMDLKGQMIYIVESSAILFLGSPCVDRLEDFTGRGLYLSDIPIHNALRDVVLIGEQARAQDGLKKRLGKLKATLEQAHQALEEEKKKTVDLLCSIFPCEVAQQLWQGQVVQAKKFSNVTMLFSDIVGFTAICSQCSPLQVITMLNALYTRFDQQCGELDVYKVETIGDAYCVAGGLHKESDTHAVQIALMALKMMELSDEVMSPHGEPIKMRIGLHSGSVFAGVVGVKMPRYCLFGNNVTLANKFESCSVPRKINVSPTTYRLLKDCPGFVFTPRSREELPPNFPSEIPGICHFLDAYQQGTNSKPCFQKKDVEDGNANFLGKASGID
T1 sequence (Q02153 1-619): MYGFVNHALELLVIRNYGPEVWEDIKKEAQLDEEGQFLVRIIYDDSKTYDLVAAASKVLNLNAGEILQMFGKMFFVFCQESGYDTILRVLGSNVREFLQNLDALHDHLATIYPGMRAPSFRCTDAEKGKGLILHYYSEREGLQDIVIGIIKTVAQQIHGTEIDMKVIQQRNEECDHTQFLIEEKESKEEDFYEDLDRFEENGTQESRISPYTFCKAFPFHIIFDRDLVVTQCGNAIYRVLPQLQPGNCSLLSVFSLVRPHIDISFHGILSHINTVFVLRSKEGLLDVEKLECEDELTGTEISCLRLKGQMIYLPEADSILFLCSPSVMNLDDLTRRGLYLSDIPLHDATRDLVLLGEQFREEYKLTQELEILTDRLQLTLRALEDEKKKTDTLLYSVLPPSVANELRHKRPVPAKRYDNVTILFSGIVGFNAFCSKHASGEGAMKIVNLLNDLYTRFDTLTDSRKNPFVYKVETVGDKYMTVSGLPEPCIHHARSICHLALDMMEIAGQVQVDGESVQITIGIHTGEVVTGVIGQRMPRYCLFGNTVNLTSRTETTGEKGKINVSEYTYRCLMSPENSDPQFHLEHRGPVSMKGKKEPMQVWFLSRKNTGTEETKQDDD
The experiment in a line: Cell-based sGC functional assay (CASA assay): cGMP generation in CHO-K1/sGC cells, HTRF detection. Particulars: for Emax: CHO-K1, percent activation relative to standard Compound A in CHO-K1/sGC cells, read-out: % Act.; for EC50: inflection point (IP) of cGMP generation in CHO-K1/sGC cells, 4P fit, activity expressed as percentage of Compound A. In outline: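 Stable CHO-K1/sGC cells in EBSS buffer with 5 mM MgCl2, 0.05% BSA and 0.5 mM IBMX were incubated with compound (2.5% DMSO final) ±1 μM DETA-NO for 1 hr at 37° C. cGMP was measured by HTRF. Activation is expressed as % of reference HDA Compound A maximum, with IP and max fold induction from a 4P fit.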
(In general: In TR-FRET formats the signal depends on donor and acceptor labels being close together.)

As usually defined, the EC50 is the concentration giving half of the maximal effect. A high value points to weaker potency. Turning to `CC1(c2ccc(F)cn2)C(=O)Nc2nc(-c3cn4ccnc4c(CCC(F)(F)C(F)(F)F)n3)nc(N)c21` (stereo not drawn) [Example 246B, 4-amino-5-(5-fluoropyridin-2-yl)-5-methyl-2-(8-(3,3,4,4,4-pentafluorobutyl)imidazo [1,2-a]pyrazin-6-yl)-5H-pyrrolo[2,3-d]pyrimidin-6(7H)-one], the “Maximum peak decrease of systolic blood pressure (SBP) in SHR, Cat.” value (“Maximum peak decrease” for short) in test [1] (P.O. 1.0 mpk) is on record as “B (Category B=SBP in SHRs 20-40 mmHg)”. Also, at sGC α1/β1 heterodimer, the Emax was 114% and a half-maximal response (EC50) required 128 nM.
Regarding `CCC1(c2ccc(Cl)cc2)C(=O)Nc2nc(-c3cn4ccnc4c(CCC(F)(F)C(F)(F)F)n3)nc(N)c21` (stereo not drawn) [Example 247B, 4-amino-5-(4-chlorophenyl)-5-ethyl-2-(8-(3,3,4,4,4-pentafluorobutyl)imidazo [1,2-a]pyrazin-6-yl)-5H-pyrrolo[2,3-d]pyrimidin-6(7H)-one], the “Maximum peak decrease” value in test [1] (P.O. 0.3 mpk) is on record as “A (Category A=SBP in SHRs<20 mmHg)”. For the same molecule, at sGC α1/β1 heterodimer, the Emax was 117% and the EC50 was found to be 152 nM.
Consider `CCC1(c2ccc(F)cn2)C(=O)Nc2nc(-c3cn4ccnc4c(CCC(F)(F)C(F)(F)F)n3)nc(N)c21` (stereo not drawn) [Example 249A, 4-amino-5-ethyl-5-(5-fluoropyridin-2-yl)-2-(8-(3,3,4,4,4-pentafluorobutyl)imidazo [1,2-a]pyrazin-6-yl)-5H-pyrrolo[2,3-d]pyrimidin-6(7H)-one], for which the “Maximum peak decrease” value in test [1] (P.O. 3.0 mpk) is “B (Category B=SBP in SHRs 20-40 mmHg)”. At sGC α1/β1 heterodimer, the Emax was determined as 96% and a half-maximal effect (EC50) was put at 759 nM.
The like results for `CCCc1ccc(C2(C)C(=O)Nc3nc(-c4cn5ccnc5c(CCC(F)(F)C(F)(F)F)n4)nc(N)c32)cn1` (stereo not drawn) [Example 250B, 4-amino-5-methyl-2-(8-(3,3,4,4,4-pentafluorobutyl)imidazo [1,2-a]pyrazin-6-yl)-5-(6-propylpyridin-3-yl)-5H-pyrrolo[2,3-d]pyrimidin-6(7H)-one] were, in that order, “A (Category A=SBP in SHRs<20 mmHg)”, 87% and 169 nM.
Turning to `CC(C)c1ccc(C2(C)C(=O)Nc3nc(-c4cn5ccnc5c(CCC(F)(F)C(F)(F)F)n4)nc(N)c32)cn1` (stereo not drawn) [Example 251B, 4-amino-5-(6-isopropylpyridin-3-yl)-5-methyl-2-(8-(3,3,4,4,4-pentafluorobutyl)imidazo [1,2-a]pyrazin-6-yl)-5H-pyrrolo[2,3-d]pyrimidin-6(7H)-one], the “Maximum peak decrease” value in test [1] (P.O. 3.0 mpk) is listed as “B (Category B=SBP in SHRs 20-40 mmHg)”. For the same molecule, at sGC α1/β1 heterodimer, the Emax is 85% and the EC50 amounted to 100 nM.
On to `CC1(c2ccc(C3CC3)nn2)C(=O)Nc2nc(-c3cn4ccnc4c(CCC(F)(F)C(F)(F)F)n3)nc(N)c21` (stereo not drawn) [Example 253B, 4-amino-5-(6-cyclopropylpyridazin-3-yl)-5-methyl-2-(8-(3,3,4,4,4-pentafluorobutyl)imidazo [1,2-a]pyrazin-6-yl)-5H-pyrrolo[2,3-d]pyrimidin-6(7H)-one], for which the “Maximum peak decrease” value in test [1] (P.O. 1.0 mpk) is “A (Category A=SBP in SHRs<20 mmHg)”. Also, at sGC α1/β1 heterodimer, the Emax was determined as 83% and the EC50 was 51 nM.
The like results for `CC1(c2ccc(F)cc2)C(=O)Nc2nc(-c3cn4c(Br)cnc4c(CCC(F)(F)C(F)(F)F)n3)nc(N)c21` (stereo not drawn) [Example 254A, 4-amino-2-(3-bromo-8-(3,3,4,4,4-pentafluorobutyl)imidazo [1,2-a]pyrazin-6-yl)-5-(4-fluorophenyl)-5-methyl-5H-pyrrolo[2,3-d]pyrimidin-6(7H)-one] were, in that order, “C (Category C=SBP in SHRs>40 mmHg)”, 126% and 57 nM.
Take `CC1(c2ccc(F)cc2)C(=O)Nc2nc(-c3cn4c(Cl)cnc4c(CCC(F)(F)C(F)(F)F)n3)nc(N)c21` (stereo not drawn) [Example 255A, 4-amino-2-(3-chloro-8-(3,3,4,4,4-pentafluorobutyl)imidazo [1,2-a]pyrazin-6-yl)-5-(4-fluorophenyl)-5-methyl-5H-pyrrolo[2,3-d]pyrimidin-6(7H)-one]: the “Maximum peak decrease” value in test [1] (P.O. 1.0 mpk) is recorded as “C (Category C=SBP in SHRs>40 mmHg)”. Also, on sGC α1/β1 heterodimer, the Emax is 142% and the EC50 was found to be 32 nM.
The matching figures for `CC1(c2ccc(F)cc2)C(=O)Nc2nc(-c3cn4c(Br)cnc4c(CCC(F)(F)F)n3)nc(N)c21` (stereo not drawn) [Example 264A, 4-amino-2-(3-bromo-8-(3,3,3-trifluoropropyl)imidazo[1,2-a]pyrazin-6-yl)-5-(4-fluorophenyl)-5-methyl-5H-pyrrolo[2,3-d]pyrimidin-6(7H)-one]: “A (Category A=SBP in SHRs<20 mmHg)”, 123% and 239 nM.
Regarding `CC1(c2ccc(Cl)cc2)C(=O)Nc2nc(-c3cn4ccnc4cn3)nc(NCCC(F)(F)C(F)(F)F)c21` (stereo not drawn) [Example 286A, 5-(4-chlorophenyl)-2-(imidazo[1,2-a]pyrazin-6-yl)-5-methyl-4-((3,3,4,4,4-pentafluorobutyl)amino)-5H-pyrrolo[2,3-d]pyrimidin-6(7H)-one], the “Maximum peak decrease” value in test [1] (P.O. 3.0 mpk) is reported as “A (Category A=SBP in SHRs<20 mmHg)”. Moreover, on sGC α1/β1 heterodimer, the Emax came to 83% and the EC50 was found to be 124 nM.
In the case of `CNc1nc(-c2cn3ccnc3c(CCC(F)(F)C(F)(F)F)n2)nc2c1C(C)(c1ccc(F)cn1)C(=O)N2` (stereo not drawn) [Example 290B, 5-(5-fluoropyridin-2-yl)-5-methyl-4-(methylamino)-2-(8-(3,3,4,4,4-pentafluorobutyl)imidazo[1,2-a]pyrazin-6-yl)-5H-pyrrolo[2,3-d]pyrimidin-6(7H)-one], the “Maximum peak decrease” value in test [1] (P.O. 3.0 mpk) was “B (Category B=SBP in SHRs 20-40 mmHg)”. Further, at sGC α1/β1 heterodimer, the Emax was determined as 106% and the EC50 worked out at 280 nM.
Consider `CN1CCN(c2nc(-c3cn4ccnc4c(CCC(F)(F)C(F)(F)F)n3)nc3c2C(C)(c2ccc(F)cc2)C(=O)N3)CC1` (stereo not drawn) [Example 311A, 5-(4-fluorophenyl)-5-methyl-4-(4-methylpiperazin-1-yl)-2-(8-(3,3,4,4,4-pentafluorobutyl)imidazo[1,2-a]pyrazin-6-yl)-5H-pyrrolo[2,3-d]pyrimidin-6(7H)-one], for which the “Maximum peak decrease” value in test [1] (P.O. 0.3 mpk) is given as “A (Category A=SBP in SHRs<20 mmHg)”. Besides, on sGC α1/β1 heterodimer, the Emax was determined as 92% and the EC50 was determined as 29 nM.
With `CCc1nc(-c2nc(N)c3c(n2)NC(=O)C3(C)c2ccc(Cl)c(F)c2)cn2ccnc12` (stereo not drawn) [Example 314B, 4-amino-5-(4-chloro-3-fluorophenyl)-2-(8-ethylimidazo[1,2-a]pyrazin-6-yl)-5-methyl-5H-pyrrolo[2,3-d]pyrimidin-6(7H)-one], the “Maximum peak decrease” value in test [1] (P.O. 3.0 mpk) was “B (Category B=SBP in SHRs 20-40 mmHg)”. In addition, at sGC α1/β1 heterodimer, the Emax was 104% and the EC50 amounted to 434 nM.
The matching figures for `CC(C)Cc1nc(-c2nc(N)c3c(n2)NC(=O)C3(c2ccc(Cl)c(F)c2)C2CC2)cn2ccnc12` (stereo not drawn) [Example 315A, 4-amino-5-(4-chloro-3-fluorophenyl)-5-cyclopropyl-2-(8-isobutylimidazo[1,2-a]pyrazin-6-yl)-5H-pyrrolo[2,3-d]pyrimidin-6(7H)-one]: “B (Category B=SBP in SHRs 20-40 mmHg)”, 113% and 119 nM.
